Assay results from patent publication US20240400586A1, “HETEROARYL DERIVATIVE PARP INHIBITOR AND USE THEREOF” (HAISCO PHARMACEUTICAL GROUP CO., LTD., priority 2021, published 2024).

What was measured:
[1] = target: PARP5B (Homo sapiens (Human), UniProt Q9H2K2); test: PARP5B enzyme activity test; assay type: biochemical
Description: (§2) PARP2, PARP5A, PARP5B, PARP6, PARP7, PARP14 and PARP15 chemical fluorescence detection kits were purchased from BPS Bioscience. The histone solution in the kit was diluted 5× with 1×PBS, and 25 μL of the diluted histone solution was added to a microwell plate and incubated overnight at 4° C. After the incubation, the plate was washed three times with PBST (0.05% Tween-20). 100 μL of the blocking solution was added to the microwell plate and incubated at 25° C. for 90 minutes. After the incubation, the plate was washed three times with PBST. […] 5 μL of the diluted PARP enzyme was added to the microwell plate, and the reaction system was incubated at 25° C. for 60 minutes.
(§3) After the incubation, the plate was washed three times with PBST. Streptavidin-HRP was diluted 50× with a blocking solution, and 25 μL of the diluent was added to the microwell plate and incubated at 25° C. for 30 minutes. After the incubation, the plate was washed three times with PBST. ELISA ECL substrate A and substrate B were mixed at a ratio of 1:1 (v/v), 25 μL of the mixture was added to the microwell plate, and the chemiluminescence value was read.
(§4) Curve fitting was performed by four parameters (log(inhibitor) vs. response—Variable slope) using GraphPad Prism software, and the IC50 value was calculated.

[2] = Pharmacokinetic test in rats; assay type: in vivo, rat; settings: male SD rats
Description: • 1.1 Experimental animals: male SD rats, about 220 g, 6-8 weeks old, 6 rats/compound, purchased from Chengdu Ddossy Experimental Animals Co., Ltd. • 1.2 Experimental design: on the day of the test, 6 SD rats were randomly grouped according to their body weight; the animals were fasted with water available for 12 to 14 h one day before the administration, and were fed 4 h after the administration.
Before and after the administration, 0.15 mL of blood was taken from the orbit of the animals under isoflurane anesthesia and placed in an EDTAK2 centrifuge tube. The blood was centrifuged at 5000 rpm and 4° C. for 10 min to collect plasma. The blood collection time points for the intravenous administration group and intragastric administration group were: 0, 5 min, 15 min, 30 min, 1 h, 2 h, 4 h, 6 h, 8 h, and 24 h. Before analysis and detection, all samples were stored at −80° C. The samples were analyzed quantitatively by LC-MS/MS.

[3] = target: PARP5A (Homo sapiens (Human), UniProt O95271); test: PARP5A enzyme activity test; assay type: biochemical
Description: as §2, §3, §4

[4] = tested on: MDA-MB-436 subcutaneous transplanted tumor; test: Mouse MDA-MB-436 subcutaneous in vivo transplanted tumor model
Description: Human breast cancer MDA-MB-436 cells were placed in Leibovitz's L-15 medium (supplemented with 10 μg/mL insulin, 16 μg/mL glutathione, 10% fetal bovine serum and 1% double antibody) and cultured at 37° C. Conventional digestion treatment with trypsin was carried out twice a week for passage. When the cell saturation was 80%-90%, and the number reached the requirement, the cells were collected, counted, and inoculated. BALB/c nude mice (from Beijing Vital River Laboratory Animal Technology Co., Ltd.) were subcutaneously inoculated with 0.2 mL (10×10^6) of MDA-MB-436 cells (plus matrigel, with the volume ratio of 1:1) on the right back. When the average tumor volume reached about 180 mm^3, grouping and administration were performed (marked as Day 0). […] The administration frequency was once a day, the administration cycle was 29 days, and the drug withdrawal observation period was set to 14 days. After grouping, the tumor diameter was measured twice a week with a vernier caliper. The formula for calculating the tumor volume was: V=0.5×a×b^2, where a and b represented the long and short diameters of the tumor, respectively.

[5] = tested on: Human breast cancer MDA-MB-231 cells; test: MDA-MB-231 cell proliferation inhibition test (CellTiter-Glo, 7 days); assay type: cell-based; settings: MDA-MB-231, 168 h, 7 days incubation
Description: (§1) The cells in the exponential growth phase were collected, and the cell suspension was adjusted to 1500 cells/135 μL with the culture medium. 135 μL of the cell suspension was added to each well of a 96-well cell culture plate and incubated overnight. On day 2, compounds at different concentrations were added, and the plate was placed in the incubator and incubated for 7 days. After the incubation was completed, according to operation instructions for a CellTiter-Glo kit (Promega, Cat #G7573), 75 μL of CTG solution, which was already pre-melted and equilibrated to room temperature, was added to each well, and the mixture was uniformly mixed for 2 min using a microplate shaker. The plate was placed at room temperature for 10 min, and then […] signal values were measured using an Envision 2104 plate reader (PerkinElmer).

[6] = target: PARP15 (Homo sapiens (Human), UniProt Q460N3); test: PARP15 enzyme activity test; assay type: biochemical
Description: as §2, §3, §4

[7] = tested on: breast tumor cells MDA-MB-436; test: MDA-MB-436 cell activity test (CellTiter-Glo, 7 days); assay type: cell-based; settings: Homo sapiens, MDA-MB-436, 168 h, 7 days incubation; for inhibition at 10 µM: read-out: MDA-MB-436 Max inh. % 10 μM; for IC50: read-out: MDA-MB-436 cell inhibitory activity IC50
Description: as §1, with “Breast tumor cells MDA-MB-436 were purchased from ATCC, the culture medium was Leibovitz's L-15+10% FBS, and the cells were cultured in a CO2-free incubator at 37° C. On day 1, the cells” for “The cells”, “to 4000” for “to 1500”, “(Promega, G7573),” for “(Promega, Cat #G7573),”, “an Envision2104” for “an Envision 2104”, “(PerkinElmer). The inhibition rate was calculated using formula (1), where RLUcompound was the readout of the drug treated group, RLUcontrol was the average value of the vehicle control group, and RLUblank was the average value of the cell-free well. The IC50 value was calculated using GraphPad Prism software.” for “(PerkinElmer).”

[8] = target: PARP7 (Homo sapiens (Human), UniProt Q7Z3E1); test: PARP7 enzyme activity test; assay type: biochemical
Description: as §2, §3, §4

[9] = target: PARP-1 enzyme (Homo sapiens (Human), UniProt P09874); test: PARP1 enzyme activity test (BPS Bioscience chemiluminescence kit); assay type: biochemical
Excerpt: Inhibition %=(1−(RLUsample−RLUmin)/(RLUmax−RLUmin))×100% (formula 1)

[10] = Sprague-Dawley (SD), rat, iv, i.v. 2.5 mg/kg, plasma

Chain of PARP-1 enzyme (P09874 whole entry): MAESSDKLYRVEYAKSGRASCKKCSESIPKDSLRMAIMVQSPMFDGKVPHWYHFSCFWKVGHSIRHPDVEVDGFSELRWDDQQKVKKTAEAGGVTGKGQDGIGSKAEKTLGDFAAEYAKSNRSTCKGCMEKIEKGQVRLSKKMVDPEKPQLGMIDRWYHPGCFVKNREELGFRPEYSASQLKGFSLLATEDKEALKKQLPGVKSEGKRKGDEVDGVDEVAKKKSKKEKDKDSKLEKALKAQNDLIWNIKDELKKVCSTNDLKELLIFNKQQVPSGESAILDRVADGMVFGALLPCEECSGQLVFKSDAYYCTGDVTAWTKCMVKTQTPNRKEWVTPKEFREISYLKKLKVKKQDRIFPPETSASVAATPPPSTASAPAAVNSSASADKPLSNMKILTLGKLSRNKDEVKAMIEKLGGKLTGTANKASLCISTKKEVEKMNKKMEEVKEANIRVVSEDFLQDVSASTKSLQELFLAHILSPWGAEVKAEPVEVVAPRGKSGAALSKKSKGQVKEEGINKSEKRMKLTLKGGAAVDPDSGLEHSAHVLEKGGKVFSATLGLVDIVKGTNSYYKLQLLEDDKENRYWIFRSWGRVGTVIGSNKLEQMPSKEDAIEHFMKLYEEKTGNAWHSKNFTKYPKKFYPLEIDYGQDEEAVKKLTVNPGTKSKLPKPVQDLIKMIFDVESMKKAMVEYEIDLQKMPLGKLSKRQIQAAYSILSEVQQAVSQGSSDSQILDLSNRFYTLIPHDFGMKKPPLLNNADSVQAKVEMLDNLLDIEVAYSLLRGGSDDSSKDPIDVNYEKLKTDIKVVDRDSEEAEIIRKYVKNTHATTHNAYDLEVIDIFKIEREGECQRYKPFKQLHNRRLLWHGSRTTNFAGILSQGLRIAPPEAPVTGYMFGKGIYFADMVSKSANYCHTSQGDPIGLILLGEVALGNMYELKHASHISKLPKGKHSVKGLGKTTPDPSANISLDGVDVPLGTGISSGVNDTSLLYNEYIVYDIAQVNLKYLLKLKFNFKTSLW
Chain of PARP7 (Q7Z3E1 whole entry): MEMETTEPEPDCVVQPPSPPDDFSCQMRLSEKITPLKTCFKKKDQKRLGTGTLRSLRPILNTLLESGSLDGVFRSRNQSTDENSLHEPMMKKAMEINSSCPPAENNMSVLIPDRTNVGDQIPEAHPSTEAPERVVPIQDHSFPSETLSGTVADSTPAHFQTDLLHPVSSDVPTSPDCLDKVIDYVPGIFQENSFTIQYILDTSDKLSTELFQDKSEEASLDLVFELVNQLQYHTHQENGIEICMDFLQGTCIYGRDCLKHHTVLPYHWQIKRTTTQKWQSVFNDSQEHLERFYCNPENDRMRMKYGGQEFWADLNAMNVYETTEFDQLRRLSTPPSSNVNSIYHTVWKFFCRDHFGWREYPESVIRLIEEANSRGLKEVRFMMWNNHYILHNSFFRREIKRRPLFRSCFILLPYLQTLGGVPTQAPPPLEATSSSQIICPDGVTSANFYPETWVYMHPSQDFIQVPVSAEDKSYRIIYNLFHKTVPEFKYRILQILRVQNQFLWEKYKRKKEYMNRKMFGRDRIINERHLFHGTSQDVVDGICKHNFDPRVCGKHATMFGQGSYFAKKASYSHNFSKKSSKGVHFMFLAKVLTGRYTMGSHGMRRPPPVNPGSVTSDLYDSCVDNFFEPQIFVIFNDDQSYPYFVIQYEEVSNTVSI
Chain of PARP5A (O95271 1001-1327 limits assumed): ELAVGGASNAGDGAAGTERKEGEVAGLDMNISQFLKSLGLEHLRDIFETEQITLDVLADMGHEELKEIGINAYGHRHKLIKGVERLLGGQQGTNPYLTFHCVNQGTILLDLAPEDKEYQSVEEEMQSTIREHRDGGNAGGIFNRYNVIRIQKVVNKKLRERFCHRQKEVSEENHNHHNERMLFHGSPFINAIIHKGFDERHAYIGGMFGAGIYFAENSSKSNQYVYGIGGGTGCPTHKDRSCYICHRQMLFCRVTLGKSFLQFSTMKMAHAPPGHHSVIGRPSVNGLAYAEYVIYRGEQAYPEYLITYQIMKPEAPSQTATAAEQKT
Chain of PARP15 (Q460N3 whole entry): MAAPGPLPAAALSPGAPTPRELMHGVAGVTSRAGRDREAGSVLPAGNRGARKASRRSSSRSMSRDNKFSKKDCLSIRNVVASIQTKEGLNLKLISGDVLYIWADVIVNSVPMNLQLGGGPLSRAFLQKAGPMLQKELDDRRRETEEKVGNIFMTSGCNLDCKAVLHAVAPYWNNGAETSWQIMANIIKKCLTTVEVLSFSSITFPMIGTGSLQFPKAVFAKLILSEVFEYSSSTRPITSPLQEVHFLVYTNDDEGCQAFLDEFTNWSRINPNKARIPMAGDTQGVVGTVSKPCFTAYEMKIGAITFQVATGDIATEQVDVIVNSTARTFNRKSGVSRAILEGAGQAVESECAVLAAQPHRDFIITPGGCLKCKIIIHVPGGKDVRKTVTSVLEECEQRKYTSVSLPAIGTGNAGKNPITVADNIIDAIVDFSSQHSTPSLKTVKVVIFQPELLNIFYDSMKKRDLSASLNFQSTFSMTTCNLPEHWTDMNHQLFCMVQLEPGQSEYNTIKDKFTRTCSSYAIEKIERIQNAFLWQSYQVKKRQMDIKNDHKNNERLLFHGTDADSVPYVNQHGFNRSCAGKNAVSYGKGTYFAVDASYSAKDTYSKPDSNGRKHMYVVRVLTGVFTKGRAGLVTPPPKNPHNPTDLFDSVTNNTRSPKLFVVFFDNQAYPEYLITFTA
Chain of PARP5B (Q9H2K2 667-1166 limits assumed): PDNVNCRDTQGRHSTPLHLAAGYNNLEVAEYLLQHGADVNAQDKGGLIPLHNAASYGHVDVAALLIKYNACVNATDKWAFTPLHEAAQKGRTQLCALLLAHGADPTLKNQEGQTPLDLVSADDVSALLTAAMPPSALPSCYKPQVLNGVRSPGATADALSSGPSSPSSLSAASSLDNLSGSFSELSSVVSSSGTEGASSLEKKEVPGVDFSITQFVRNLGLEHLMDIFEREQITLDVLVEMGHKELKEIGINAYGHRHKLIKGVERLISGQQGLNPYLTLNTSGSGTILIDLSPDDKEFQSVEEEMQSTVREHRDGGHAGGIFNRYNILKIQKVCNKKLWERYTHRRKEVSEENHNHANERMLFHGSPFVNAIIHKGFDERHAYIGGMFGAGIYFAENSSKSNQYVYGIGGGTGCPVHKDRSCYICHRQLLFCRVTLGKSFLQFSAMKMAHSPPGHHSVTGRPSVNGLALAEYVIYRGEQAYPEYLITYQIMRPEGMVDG

Structure (SMILES)	IC50 [7]	IC50 [9]	inhibition at 10 µM [7]	other results
CCc1cc2ncc(CN3CCN(c4ccc(C(=O)NC5CC5)nc4)CC3)cc2[nH]c1=O [Compound 4, N-cyclopropyl-5-(4-((7-ethyl-6-oxo-5,6-dihydro-1,5-naphthyridin-3-yl)methyl)piperazin-1-yl)picolinamide]	2 nM		89.4%	IC50 [1]: 576 nM; AUC(0-t) [2, 10]: 46.6 ± 4.75 µg·h/mL; clearance [2, 10]: 0.896 ± 0.097 mL/min/kg; Vd ([2]; Sprague-Dawley (SD), rat, iv, i.v. 2.5 mg/kg, plasma, read-out: Vdss): 0.236 ± 0.022 L/kg; AUC(0-t) ([2]; Sprague-Dawley (SD), rat, po, i.g. 10 mg/kg, plasma): 184 ± 72.3 µg·h/mL; F ([2]; i.g. 10 mg/kg): 98.8 ± 39%; IC50 [3]: 6080 nM; tumor growth after the drug withdrawal ([4]; 14 days drug withdrawal observation period): did not grow again; body weight of the animals ([4]; BALB/c nude mice, once a day, Day 0-10: 1 mg/kg, Day 11-28: 0.1 mg/kg): no significant decrease in the body weight; TGI ([4]; BALB/c nude mice, once a day, Day 0-10: 1 mg/kg, Day 11-28: 0.1 mg/kg, after 28 days of administration): 119%; inhibition at 10 µM ([5]; 10 μM, read-out: MDA-MB-231 Max inh. % 10 μM): 66.8%; IC50 ([5]; BRCA WT cells, read-out: MDA-MB-231 cell inhibitory activity IC50): 15900 nM; IC50 [6]: 4300 nM; IC50 [8]: 5360 nM
CCc1cc2ncc(CN3CCN(c4ccc(NC(=O)c5cnn(C)c5)nc4)CC3)cc2[nH]c1=O [Compound 33, N-(5-(4-((7-ethyl-6-oxo-5,6-dihydro-1,5-naphthyridin-3-yl)methyl)piperazin-1-yl)pyridin-2-yl)-1-methyl-1H-pyrazole-4-carboxamide]	3.1 nM	0.74 nM	90%	
CCc1cc2ncc(CN3CCN(c4ccc(C(=O)Nc5cnn(C)c5)nc4)CC3)cc2[nH]c1=O [Compound 23, 5-(4-((7-ethyl-6-oxo-5,6-dihydro-1,5-naphthyridin-3-yl)methyl)piperazin-1-yl)-N-(1-methyl-1H-pyrazol-4-yl)picolinamide]	1.4 nM	0.67 nM	84.2%	
CCc1cc2ncc(CN3CCN(c4ccc(C(=O)N[C@@H]5C[C@@H]5F)nc4)CC3)cc2[nH]c1=O [Compound 11, 5-(4-((7-ethyl-6-oxo-5,6-dihydro-1,5-naphthyridin-3-yl)methyl)piperazin-1-yl)-N-((1R,2S)-2-fluorocyclopropyl)picolinamide]	6 nM	0.54 nM	85.2%	
CCc1cc2ncc(CN3CCN(c4ccc(NC(=O)C5CC(F)(F)C5)nc4)CC3)cc2[nH]c1=O [Compound 26, N-(5-(4-((7-ethyl-6-oxo-5,6-dihydro-1,5-naphthyridin-3-yl)methyl)piperazin-1-yl)pyridin-2-yl)-3,3-difluorocyclobutane-1-carboxamide]	18 nM	0.48 nM	86.3%	
CCc1cc2ncc(CN3CCN(c4ccc(-c5nnc(C)[nH]5)nc4)CC3)cc2[nH]c1=O [Compound 42, 3-ethyl-7-((4-(6-(5-methyl-4H-1,2,4-triazol-3-yl)pyridin-3-yl)piperazin-1-yl)methyl)-1,5-naphthyridin-2 (1H)-one]	24.1 nM	0.67 nM	84.1%	
CCc1cc2ncc(CN3CCN(c4ccc(NC(=O)C5CC5)nc4)CC3)cc2[nH]c1=O [Compound 9, N-(5-(4-((7-ethyl-6-oxo-5,6-dihydro-1,5-naphthyridin-3-yl)methyl)piperazin-1-yl)pyridin-2-yl)cyclopropanecarboxamide]	6 nM	0.73 nM	86.2%	
CCc1cc2ncc(CN3CCN(c4cnc(C(=O)NC)c(F)c4)CC3)cc2[nH]c1=O [Compound 6, 5-(4-((7-ethyl-6-oxo-5,6-dihydro-1,5-naphthyridin-3-yl)methyl)piperazin-1-yl)-3-fluoro-N-methylpicolinamide]	10 nM	0.56 nM	85.7%	
CCc1cc2ncc(CN3CCN(c4ccc(NC(=O)OC5CC5)nc4)CC3)cc2[nH]c1=O [Compound 37, Cyclopropyl(5-(4-((7-ethyl-6-oxo-5,6-dihydro-1,5-naphthyridin-3-yl)methyl)piperazin-1-yl)pyridin-2-yl)carbamate]	18.9 nM	0.96 nM	93.7%	
CCc1cc2ncc(CN3CCN(c4ccc(C(=O)NC5CCC5)nc4)CC3)cc2[nH]c1=O [Compound 10, N-cyclobutyl-5-(4-((7-ethyl-6-oxo-5,6-dihydro-1,5-naphthyridin-3-yl)methyl)piperazin-1-yl)picolinamide]	17 nM	0.56 nM	94.2%	

The remaining compounds from weak to strong by IC50 [7], led by results:

IC50 [7]	IC50 [9]	Structure (SMILES)	inhibition at 10 µM [7]	other results
17.6 nM	0.7 nM	CCc1cc2ncc(CN3CCN(c4ccc(C(=O)NC5CC6(CCC6)C5)nc4)CC3)cc2[nH]c1=O [Compound 38, 5-(4-((7-ethyl-6-oxo-5,6-dihydro-1,5-naphthyridin-3-yl)methyl)piperazin-1-yl)-N-(spiro[3.3]heptan-2-yl)picolinamide]	98.8%	
16 nM	0.88 nM	CCc1cc2ncc(CN3CCN(c4ccc(C(=O)NC5CC(F)(F)C5)nc4)CC3)cc2[nH]c1=O [Compound 25, N-(3,3-difluorocyclobutyl)-5-(4-((7-ethyl-6-oxo-5,6-dihydro-1,5-naphthyridin-3-yl)methyl)piperazin-1-yl)picolinamide]	99%	
12 nM	0.51 nM	CCc1cc2ncc(CN3CCN(c4ccc(C(=O)NC5CNC5)nc4)CC3)cc2[nH]c1=O [Compound 22, N-(azetidin-3-yl)-5-(4-((7-ethyl-6-oxo-5,6-dihydro-1,5-naphthyridin-3-yl)methyl)piperazin-1-yl)picolinamide]	89.4%	
9 nM	0.73 nM	CCc1cc2ncc(CN3CCN(c4ccc(C(=O)NCCOC)nc4)CC3)cc2[nH]c1=O [Compound 24, 5-(4-((7-ethyl-6-oxo-5,6-dihydro-1,5-naphthyridin-3-yl)methyl)piperazin-1-yl)-N-(2-methoxyethyl)picolinamide]	82.3%	
8.5 nM	0.66 nM	CCc1cc2ncc(CN3CCN(c4ccc(NC(=O)[C@H]5CC5(F)F)nc4)CC3)cc2[nH]c1=O (single isomer, unassigned) [Compound 51]	95.6%	
5.6 nM	0.61 nM	CCc1cc2ncc(CN3CCN(c4ccc(C(=O)NCC5CC5)nc4)CC3)cc2[nH]c1=O [Compound 40, N-(cyclopropylmethyl)-5-(4-((7-ethyl-6-oxo-5,6-dihydro-1,5-naphthyridin-3-yl)methyl)piperazin-1-yl)picolinamide]	99.3%	
3 nM	0.69 nM	CCc1cc2ncc(CN3CCN(c4ccc(NC(=O)[C@@H]5CC5(F)F)nc4)CC3)cc2[nH]c1=O (single isomer, unassigned) [Compound 50]	92.9%	
